Like-named read-outs stand apart in the source and are kept apart here.
Key:
[1] = Hypochlorous acid stability and shelf life, DPD assay (Table 10, FIG. 1); type: physicochemical
E. Coli (ATCC 43888) = type: cell-based; conditions: inoculum 6.87-log, about 33° F.
[2] = Spinach leaf 25 grams, 180 min.

| Compound | level of hypochlorous acid in solution ([1]; in the absence of diol at pH 7) [%] | level of hypochlorous acid in solution ([1]; in the presence of diol at pH 4, at about 4 hours) [%] | Antimicrobial activity (log reduction) of single components (E. Coli (ATCC 43888); Spinach leaf 25 grams, 2 min.) [log] | Antimicrobial activity (log reduction) of single components (E. Coli (ATCC 43888); Spinach leaf 25 grams, 30 min.) [log] | Antimicrobial activity (log reduction) of single components (E. Coli (ATCC 43888); [2]) [log] | Antimicrobial activity (log reduction) of single components (E. Coli (ATCC 43888); Strawberry 25 grams, 2 min.) [log] | Antimicrobial activity (log reduction) of single components (E. Coli (ATCC 43888); Strawberry 25 grams, 30 min.) [log] | Antimicrobial activity (log reduction) of single components (E. Coli (ATCC 43888); Strawberry 25 grams, 180 min.) [log] |
| --- | --- | --- | --- | --- | --- | --- | --- | --- |
| OCl [hypochlorous acid] | 100 | 0 | – | – | – | – | – | – |
| BrBr [Bromine (0.08 wgt. %), Bromine] | – | – | 2.11 | 3.28 | 4.44 | 2.32 | 3.32 | 4.89 |
| O=[O+][O-] [Ozone (0.001 wgt. %), Ozone] | – | – | 2.34 | 2.58 | 3.63 | 2.89 | 3.12 | 4.12 |
| Octyl Phenol Ethoxylate [Octyl Phenol Ethoxylate (0.5 wgt. %)] | – | – | 1.15 | 2.47 | 3.11 | 1.05 | 2.78 | 3.9 |
